Source: patent US5891869A, “Basic oxazoline-amide derivatives of GE2270 and GE2270-like antibiotics” (Biosearch Italia, S.p.A., priority 1995, dated 1999)

Legend:
[1] = test system: Bacteroides fragilis ATCC 25285 L1011; test: MIC by microbroth dilution; type: cell-based; settings: 0,01% BSA, 10^5 CFU/ml, 48 h, anaerobic, Wilkins-Chalgren broth
Experimental: (§1) The minimal inhibitory concentration (MIC) has been determined by microbroth dilution methodology, in the presence of 0,01% (w/v) of bovine serum albumin (BSA). BSA is added to the diluent to avoid possible adherence of the compounds of the invention to the plastic surface of the microtiter wells, as disclosed also by B. Goldstein et al., Antimicrobial Agents and Chemotherapy, 37 (1993), 741-745.
(§2) Inocula were 10^4 CFU/ml, except for Propionibacterium acnes and Bacteroides fragilis (10^5 CFU/ml) MICs were read after 18-24 h, except for Haemophilus influenzae, P. acnes, B. fragilis (48 h).
(§3) All microorganisms were incubated at 37° C.; H. influenzae in a 5% CO2 atmosphere, anaerobes in a N2 --CO2 --H2 (80:10:10) mixture; other organisms in air.
(§4) The growth media are: Oxoid Iso-Sensitest broth for staphylococci and Enterococcus faecalis); Difco Todd Hewitt broth for streptococci; Difco brain heart infusion broth+1% Difco Supplement C. for H. influenzae; Difco Wilkins-Chalgren broth for anaerobes.

[2] = test system: Staphylococcus aureus L165; test: MIC by microbroth dilution; type: cell-based; settings: 0,01% BSA, inoculum 10^4 CFU/ml, read after 18-24 h, Iso-Sensitest broth
Experimental: as §1, §2, §3, §4

[3] = test system: Streptococcus pyogenes L49; test: MIC by microbroth dilution; type: cell-based; settings: 0,01% BSA, 10^4 CFU/ml, 18-24 h, Todd Hewitt broth
Experimental: as §1, §2, §3, §4

[4] = test system: Staph. epidermidis ATCC 12228 L147; test: MIC by microbroth dilution; type: cell-based, Staphylococcus epidermidis; settings: 0,01% BSA, 10^4 CFU/ml, 18-24 h, Iso-Sensitest broth
Experimental: as §1, §2, §3, §4

[5] = test system: Staph. haemolyticus L602; test: MIC by microbroth dilution; type: cell-based, Staphylococcus haemolyticus; settings: 0,01% BSA, 10^4 CFU/ml, 18-24 h, Iso-Sensitest broth
Experimental: as §1, §2, §3, §4

[6] = test system: Strept. pneumoniae L44; test: MIC by microbroth dilution; type: cell-based, Streptococcus pneumoniae; settings: 0,01% BSA, 10^4 CFU/ml, 18-24 h, Todd Hewitt broth
Experimental: as §1, §2, §3, §4

[7] = test system: Strept. sanguis L1721; test: MIC by microbroth dilution; type: cell-based, Streptococcus sanguis; settings: 0,01% BSA, 10^4 CFU/ml, 18-24 h, Todd Hewitt broth
Experimental: as §1, §2, §3, §4

[8] = test system: Strept. agalactiae L310; test: MIC by microbroth dilution; type: cell-based, Streptococcus agalactiae; settings: 0,01% BSA, 10^4 CFU/ml, 18-24 h, Todd Hewitt broth
Experimental: as §1, §2, §3, §4

[9] = test system: Propionibact. acnes ATCC 6919 L1014; test: MIC by microbroth dilution; type: cell-based, Propionibacterium acnes; settings: 0,01% BSA, 10^5 CFU/ml, 48 h, anaerobic, Wilkins-Chalgren broth
Experimental: as §1, §2, §3, §4

[10] = test system: Haemoph. influenzae ATCC 19418 L970; test: MIC by microbroth dilution; type: cell-based, Haemophilus influenzae; settings: 0,01% BSA, 10^4 CFU/ml, 48 h, 5% CO2, brain heart infusion broth+1% Supplement C
Experimental: as §1, §2, §3, §4

[11] = test system: Enterococcus faecalis ATCC 7080 L149; test: MIC by microbroth dilution; type: cell-based; settings: Enterococc. faecalis ATCC 7080 L149; 0,01% BSA; 10^4 CFU/ml; 18-24 h; Iso-Sensitest broth
Experimental: as §1, §2, §3, §4

[12] = test system: gram positive bacteria; settings: from K. Shimanaka et al.; cited from earlier work

Structure (SMILES) | MIC of the compounds [1] | MIC of the compounds [2] | MIC of the compounds [3] | MIC of the compounds [4] | MIC of the compounds [5] | MIC of the compounds [6] | MIC of the compounds [7] | MIC of the compounds [8] | MIC of the compounds [9] | MIC of the compounds [10] | MIC of the compounds [11] | antimicrobial activity [12]
CNC(=O)CC1NC(=O)c2csc(n2)-c2ccc(-c3nc(C4=NC(C(=O)N(C)CCN(C)C)CO4)cs3)nc2-c2csc(n2)-c2csc(n2)C(C(O)c2ccccc2)NC(=O)CNC(=O)c2nc(sc2COC)C(C(C)C)NC(=O)c2nc1sc2C (mixture of isomers) [Compound 4] | 8 µg/mL | 0.06 µg/mL | 0.5 µg/mL | 0.06 µg/mL | 0.06 µg/mL | 0.13 µg/mL | 0.13 µg/mL | 0.5 µg/mL | 0.016 µg/mL | 4 µg/mL | – | –
CNC(=O)CC1NC(=O)c2csc(n2)-c2ccc(-c3nc(C4=NC(C(=O)N5CCN(C)CC5)CO4)cs3)nc2-c2csc(n2)-c2csc(n2)C(C(O)c2ccccc2)NC(=O)CNC(=O)c2nc(sc2COC)C(C(C)C)NC(=O)c2nc1sc2C (mixture of isomers) [Compound 6] | 128 µg/mL | 0.06 µg/mL | 4 µg/mL | – | – | 0.25 µg/mL | 0.25 µg/mL | 4 µg/mL | – | – | – | –
CNC(=O)CC1NC(=O)c2csc(n2)-c2ccc(-c3nc(C4=NC(C(=O)NC5CNC(C(N)=O)C5)CO4)cs3)nc2-c2csc(n2)-c2csc(n2)C(C(O)c2ccccc2)NC(=O)CNC(=O)c2nc(sc2COC)C(C(C)C)NC(=O)c2nc1sc2C.O=C(O)C(F)(F)F (mixture of isomers) [Compound 13] | > 128 µg/mL | 0.13 µg/mL | 4 µg/mL | 0.5 µg/mL | 0.5 µg/mL | 0.5 µg/mL | – | – | 0.13 µg/mL | 128 µg/mL | 0.06 µg/mL | –
CNC(=O)CC1NC(=O)c2csc(n2)-c2ccc(-c3nc(C4=NC(C(=O)N(C)CCN5CCN(CCO)CC5)CO4)cs3)nc2-c2csc(n2)-c2csc(n2)C(C(O)c2ccccc2)NC(=O)CNC(=O)c2nc(sc2COC)C(C(C)C)NC(=O)c2nc1sc2C (mixture of isomers) [Compound 19] | 4 µg/mL | 0.06 µg/mL | 1 µg/mL | 0.13 µg/mL | 0.13 µg/mL | 0.13 µg/mL | 0.13 µg/mL | 2 µg/mL | 0.016 µg/mL | 16 µg/mL | 0.016 µg/mL | –
CNC(=O)CC1NC(=O)c2csc(n2)-c2ccc(-c3nc(C4=NC(C(=O)N(C)CCN(C)C)CO4)cs3)nc2-c2csc(n2)-c2csc(n2)C(C(O)c2ccccc2)NC(=O)CNC(=O)c2nc(sc2COC)C(C(C)C)NC(=O)c2nc1sc2C (centres unmarked) [Compound 4s] | 8 µg/mL | 0.06 µg/mL | 1 µg/mL | 0.06 µg/mL | 0.06 µg/mL | 0.25 µg/mL | 0.13 µg/mL | 0.5 µg/mL | 0.03 µg/mL | 64 µg/mL | 0.016 µg/mL | –
CNC(=O)CC1NC(=O)c2csc(n2)-c2ccc(-c3nc(C4=NC(C(=O)N5CCC(N(C)C)CC5)CO4)cs3)nc2-c2csc(n2)-c2csc(n2)C(C(O)c2ccccc2)NC(=O)CNC(=O)c2nc(sc2COC)C(C(C)C)NC(=O)c2nc1sc2C (centres unmarked) [Compound 10s] | 8 µg/mL | 0.03 µg/mL | 1 µg/mL | 0.06 µg/mL | 0.13 µg/mL | 0.5 µg/mL | 0.5 µg/mL | 2 µg/mL | 0.016 µg/mL | 8 µg/mL | 0.03 µg/mL | –
CNC(=O)CC1NC(=O)c2csc(n2)-c2ccc(-c3nc(C4=NC(C(=O)N(C)CCN5CCN(CCO)CC5)CO4)cs3)nc2-c2csc(n2)-c2csc(n2)C(C(O)c2ccccc2)NC(=O)CNC(=O)c2nc(sc2COC)C(C(C)C)NC(=O)c2nc1sc2C (centres unmarked) [Compound 19s] | 8 µg/mL | 0.06 µg/mL | 1 µg/mL | 0.06 µg/mL | 0.13 µg/mL | 0.13 µg/mL | – | – | 0.016 µg/mL | 8 µg/mL | 0.016 µg/mL | –
CNC(=O)CC1NC(=O)c2csc(n2)-c2ccc(-c3nc(C4=NC(C(=O)N5CCCC5C(N)=O)CO4)cs3)nc2-c2csc(n2)-c2csc(n2)C(C(C)C)NC(=O)CNC(=O)c2csc(n2)C(C(C)C)NC(=O)c2nc1sc2C (centres unmarked) [amythiamicin factor A] | – | – | – | – | – | – | – | – | – | – | – | shows antimicrobial activity against gram positive bacteria
